Laboratory results taken from article PMC8049018, “A MIF‐Derived Cyclopeptide that Inhibits MIF Binding and Atherogenic Signaling via the Chemokine Receptor CXCR2” (Chembiochem, 2020).
Bridge positions count the residues as written; N and C are the ends. Ends that are not written are not given here. Peptide text beside a SMILES is read from it. Fluos = 5(6)-carboxyfluorescein

Assays:
[1] = Proteolytic stability assay in human plasma; format: in vitro ADME; conditions: 37 °C; for half-life: human plasma (citrate-anticoagulated), human plasma (citrate 10 mM, pH 7.0), peptide 200–500 μg/mL, TCA stop, intact peptide by C18 RP-HPLC (214 nm) peak area, MALDI-MS verified, three independent incubations, read-out: t1/2 in human blood plasma (converted)
Description: Proteolytic stability assay: Proteolytic stability studies of peptides were performed following a previously described experimental protocol.[ ^20 , ^23 ] Briefly, peptides were incubated (200–500 μg/mL) in human plasma, isolated from the blood of healthy volunteers by routine methods using citrate (10 mM, pH 7.0) as an anti‐coagulant, at 37 °C for various time intervals. At the end of each interval, a stop solution (1 : 1) containing aqueous trichloroacetic acid (TCA, 10 %, v/v) was added and the samples kept on ice for 10 min. Samples were centrifuged at 20 000 g for 4 min, the supernatants retrieved and mixed 1 : 2 with a solution of 80 % HPLC buffer B (0.05 % (v/v) TFA in 90 % (v/v) CH3CN in water) and 20 % HPLC buffer A (0.058 % (v/v) TFA in water). Samples were analyzed by RP‐HPLC (detection at 214 nm) using a Nucleosil 100 C18 column (Grace; length 33 mm, i.d. 8 mm, 7 μm particle size). ^[24] The flow rate was 2 mL/min and the samples were analyzed with an elution program consisting of 2 steps; first step: 10 % HPLC buffer B in buffer A (1 min) and second step: a gradient from 10 to 90 % HPLC buffer B in buffer A (6 min). Peaks were collected, immediately frozen, lyophilized, and their molecular weights determined by MALDI‐MS. The HPLC peak areas were used to quantify remaining peptides in plasma.

[2] = CD concentration dependence study; format: physicochemical; conditions: between 5 and 100 μM
Excerpt: Peptides: Linear MIF‐derived peptides were generated by standard Fmoc‐based solid phase peptide synthesis (SPPS) in their N‐terminally acetylated and C‐terminally amidated forms and purified by reversed‐phase (RP)‐HPLC as previously described. ^[18] 5(6)‐Carboxyfluorescein (Fluos) N‐terminally labeled peptides were synthesized as described. ^[19] Peptide purity was verified by matrix‐assisted laser desorption ionization mass spectrometry (MALDI‐MS). Cyclic peptide derivatives MIF(cyclo0), MIF(cyclo4), MIF(cyclo6), and MIF(cyclo10), containing terminal cysteines and different numbers of glycine and serine spacer residues to tailor ring size, were custom‐synthesized and purified (>96 % purity grade) by American Peptide Company (APC), Inc./Bachem (Bubendorf, Switzerland), or as described previously, ^[20] applying standard disulfide‐based oxidation procedures. […] The sequence of the scrambled control peptide of MIF(47–56) is […].
Circular dichroism spectroscopy: CD spectra were recorded on a Jasco J‐715 spectropolarimeter in a wavelength range between 190 and 250 nm. Spectra were measured at 0.1 nm intervals and a response time of 1 s. […] Each spectrum was measured three times, averaged and smoothed after background subtraction of the buffer. […]

[3] = molecular target: T1, Alexa‐488‐labeled recombinant MIF (Alexa‐MIF) (Homo sapiens, UniProt P14174); test: Fluorescence spectroscopic titration of Alexa-MIF with peptide; format: binding; conditions: Alexa-MIF 10 nM, peptide 0.1- to 1000-fold molar excess, 10 mM sodium phosphate pH 7.4, 1 % HFIP, RT, emission at 519 nm, three titrations
T1 construct: made in house
T1 sequence (P14174 1-115): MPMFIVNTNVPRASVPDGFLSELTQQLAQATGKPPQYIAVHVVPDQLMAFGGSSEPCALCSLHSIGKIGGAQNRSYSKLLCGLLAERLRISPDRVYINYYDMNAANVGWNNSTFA
Description: Fluorescence spectroscopy: Fluorescence spectroscopic titrations were performed on a Jasco FP‐6500 spectrofluorometer. Alexa Fluor‐488‐labelled rMIF (Alexa‐MIF) was reconstituted in 20 mM sodium phosphate buffer (pH 7.2). […] The excitation wavelength was set at 492 nm and fluorescence emission spectra were recorded between 500 and 600 nm within 2–3 min after the preparation of the mixtures at room temperature (RT).

[4] = molecular target: T2, CXCR2 (Homo sapiens, UniProt P25025); test: Label-free dynamic mass redistribution (DMR), HEK293-CXCR2 transfectants; format: cell-based; conditions: peptide 500 μM (MIF(47–56) also 100–500 μM), 30 s intervals
T2 construct: expressed in transfected cells
T2 sequence (P25025 1-360): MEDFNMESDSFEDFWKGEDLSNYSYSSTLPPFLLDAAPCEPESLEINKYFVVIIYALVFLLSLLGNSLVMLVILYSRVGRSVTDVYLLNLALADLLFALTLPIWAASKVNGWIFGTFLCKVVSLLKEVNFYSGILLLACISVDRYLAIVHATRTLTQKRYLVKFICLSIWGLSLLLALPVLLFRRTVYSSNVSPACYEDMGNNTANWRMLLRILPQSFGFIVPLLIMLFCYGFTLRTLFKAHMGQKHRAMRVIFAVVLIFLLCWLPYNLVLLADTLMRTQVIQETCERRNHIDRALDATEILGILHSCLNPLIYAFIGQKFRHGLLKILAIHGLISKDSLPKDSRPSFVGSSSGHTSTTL
Description: Label‐free dynamic mass redistribution: Dynamic mass redistribution (DMR) analysis ^[22] was performed according to Perkin Elmer's instructions for label‐free DMR measurements. Briefly, cells were seeded at a density of 40 000 cells per well of an EnSpire label‐free 96‐well fibronectin‐coated cell assay microplate (PerkinElmer). Post‐seeding, the cells were equilibrated at RT for 30 min and cultivated overnight in serum‐containing DMEM/F‐12 medium. The next day, the cells were washed four times with assay buffer containing 20 mM HEPES and 1 % DMSO in HBSS (pH 7.4), using an aspiration wand leaving a residual volume of 35 μL. The plate was equilibrated at RT for 2 h. […] Before adding the peptides, baseline measurements were performed for 10 min (30 s intervals) using the EnSpire Label‐free Multimode Plate Reader (PerkinElmer). Then, 20 μL of the respective peptides were added to the cells at a final concentration of 500 μM followed by real‐time measurements over a time period of 40 min (30 s intervals). The signal output represents a cumulative response overlay of all cells.

[5] = tested on: Primary human monocytes (MIF/CXCR2 axis); test: Transwell migration assay, MIF-induced monocyte chemotaxis; format: cell-based; conditions: peptide 5 μM, human MIF 8 nM, Transwell 5 μm pores, 3 h, 37 °C, n=3–11
Description: Transwell migration assay: The inhibitory potential of the MIF‐derived peptide analogues was measured by Transwell chemotaxis assay using CD14^+ monocytes isolated from PBMCs or the entire PBMC fraction, as previously described. ^[7a] Briefly, PBMCs from buffy coats or CD14+ monocytes isolated from PBMCs were diluted in RPMI1640 supplemented with 0.5 % bovine serum albumin (BSA) at a density of […] cells/mL. Cells were placed into the upper chamber of a 24‐well cell culture inserts with 5 μm pore size (Corning). 8 nM full‐length MIF served as chemoattractant and was pre‐incubated with or without 5 μM of the respective peptides and applied to the lower chamber. After a 3 h migration interval at 37 °C (5 % CO2), cells were collected and counted via a CASY Cell Counter (OLS, OMNI Life Science, Bremen, Germany).

[6] = molecular target: T2, CXCR2; test: Receptor binding assay, flow cytometry, HEK293-CXCR2 vs HEK293-WT; conditions: 3.7 or 7.4 μM, on ice 2 h, HEK293-CXCR2 compared to non-transfected HEK293, flow cytometry, n=4–7

| Molecule | half-life [1] [min] | Concentration dependence of CD spectra (solubility/aggregation check) [2] | CXCR2-binding response (change of resonant wavelength Δpm) [4] | other results |
| --- | --- | --- | --- | --- |
| CSCC[C@@H]1NC(=O)[C@H](CC(C)C)NC(=O)CNC(=O)CNC(=O)[C@H](CO)NC(=O)CNC(=O)CNC(=O)[C@@H](N)CSSC[C@@H](C(=O)O)NC(=O)CNC(=O)CNC(=O)[C@H](CO)NC(=O)CNC(=O)CNC(=O)[C@@H]2CCCN2C(=O)[C@H](CCC(=O)O)NC(=O)[C@H](CO)NC(=O)[C@H](CO)NC(=O)CNC(=O)CNC(=O)[C@H](Cc2ccccc2)NC(=O)[C@H](C)NC1=O [MIF(cyclo10)] (H-CGGSGGLMAFGGSSEPGGSGGC-OH; disulfide 1-22) | > 480 | no concentration dependence of the CD spectra | – | Time up to which appreciable amounts of intact peptide were detectable ([1]; human plasma, C18 HPLC and MALDI-MS): up to 48 h; Resistance to proteolysis relative to MIF(47–56) ([1]; human plasma, ratio of t1/2): more than 16 fold |
| Ac-LMAFGGSSEP-NH2 [MIF(47–56)] | ~30 | no concentration dependence of the CD spectra | found to bind to HEK293‐CXCR2 transfectants | Direct binding to MIF [3]: does not directly bind to MIF; Inhibition of MIF-induced monocyte chemotaxis [5]: significantly inhibited |
| Ac-SFESGPAGML-NH2 [scrambled control sequence, reference compound] | – | – | fully abrogated | – |
| Fluos‐MIF(47–56): fluorescently labeled MIF(47–56), 5(6)‐carboxyfluorescein at the N-terminus (Fluos-MAFGGSSEPC; UniProt P14174 48-57, looked up, fragment) | – | – | – | Binding to cell surface-expressed CXCR2 (MFI) [6]: specifically bound to full‐length CXCR2 |
